# Like-named read-outs stand apart in the source and are kept apart here.
# Assays:
# S. aureus (SA38) = assay: Minimum inhibitory concentration (MIC) assay against S. aureus; format: cell-based, Staphylococcus aureus
# Experimental: (§1) The antimicrobial activity of the compounds was evaluated by MIC assay using the procedure described by Clinical and Laboratory Standards Institute (CLSI). A single colony of bacteria was cultured overnight in trypticase soy broth (TSB; Oxoid, Basingstoke, UK) at 37 °C with shaking. The resulting bacterial culture was collected by centrifugation and resuspended in TSB twice. The optical density (OD) of the resulting culture was adjusted to OD660 = 0.1 in TSB (which is equivalent to 10^8 colony forming unit (CFU)/mL bacteria). It was further diluted to 10^6 CFU/mL in TSB. 100 µL of the bacterial solution was then added to wells of a 96-well plate (Costar; Sigma-Aldrich, St Louis, MO, USA) containing 100 µL serially diluted peptide mimic, with final concentration ranging from 1 to 250 µM. Wells with bacteria but no compound were used as negative control while wells with only media were set as blank. The plates were then wrapped with parafilm to prevent evaporation and incubated with shaking at 120 rpm at 37 °C for 18–24 h, and the data were recorded by measuring the OD value at 660 nm using a FLUOstar Omega (BMG Labtech, Mornington, Victoria, Australia) microplate reader. […] Each experiment was performed in triplicate and was repeated in three independent experiments.
# [1] = tested on: MRC-5 normal human lung fibroblasts; assay: MTT toxicity assay; format: cell-based; settings: 72 h drug incubation, read-out: IC50 against MRC-5 normal human lung fibroblasts
# Experimental: The toxicity of the compounds was measured using an MTT (3-(4,5-dimethylthiazol-2-yl)-2,5-diphenyltetrazolium bromide) (Sigma Aldrich, St Louis, MO, USA) colorimetric assay against normal human lung fibroblasts MRC-5 cells. The cells were cultured in minimal essential medium (MEM; Sigma Aldrich, St Louis, MO, USA) containing 10% foetal bovine serum (FBS). The cells were maintained at 37 °C in 5% CO2 as an adherent monolayer and was passaged upon reaching confluence by standard cell culture techniques. MRC-5 cells were seeded at 5000 cells/well in 96-well plates to ensure full confluence (quiescence) and left overnight to adhere to the plate wells. The adherent cells were treated with 1–500 µM of compounds by dissolving in DMSO and serially diluting with media. The final concentration of DMSO was 0.5% (v/v). After 72 h drug incubation, […] stock MTT solution (5 mg/mL) was added and the cells were incubated for another 3.5–4 h. MTT solution-containing media was carefully aspirated without displacing the purple crystals from the bottom and […] acid-isopropanol was added to all wells and mixed slowly by shaking with an orbital shaker to dissolve the dark blue crystals. The metabolic activity was detected by spectrophotometric analysis by assessing the read absorbance (590/620 nm) on an EnSight plate reader (PerkinElmer, Waltham, MA, USA) and cell viability was expressed as a percentage of untreated control cells. The determination of IC50 values was performed using GraphPad Prism 6 (GraphPad, San Diego, CA, USA). Each experiment was performed in triplicate and was repeated in three independent experiments.
# P. aeruginosa (PA01) = assay: Minimum inhibitory concentration (MIC) assay against P. aeruginosa; format: cell-based; settings: Pseudomonas aeruginosa
# Experimental: as §1
# E. coli (K12) = assay: Minimum inhibitory concentration (MIC) assay against E. coli; format: cell-based; settings: Escherichia coli
# Experimental: as §1
# [2] = tested on: established S. aureus biofilms; assay: Biofilm disruption assay (crystal violet staining), S. aureus; format: cell-based, Staphylococcus aureus; settings: any tested concentration (1×, 2× and 4× MIC), 24 h treatment
# Experimental: Bacterial cultures (S. aureus and E. coli) were grown in Muller Hinton broth (MHB; Oxoid, Basingstoke, UK) media overnight at 37 °C with shaking at 120 rpm. Cultures were diluted (1:20) in MHB medium and 200 µL aliquots were dispensed to wells in a flat bottom 96-well plate (Costar; Sigma-Aldrich, St Louis, MO, USA). Biofilm was then grown in the 96-well plate at 37 °C overnight. After that, loosely bound cells were washed away with 1x phosphate-buffered saline (PBS) and cultures were then supplemented with different concentrations of test compounds dissolved in DMSO and incubated for a further 24 h with shaking at 120 rpm. Biofilms adhered on the plate substratum were quantified using crystal violet staining as described previously. The experiment was performed in triplicate.
Compound,MIC (S. aureus (SA38)),MIC (S. aureus (SA38); Staphylococcus aureus),MIC (P. aeruginosa (PA01)),MIC (E. coli (K12)),IC50 [1],"IC50 ([1]; Homo sapiens, MRC5, 72 h)",disruption of preformed S. aureus biofilms [2]
"CCCCCCCCS(=O)(=O)Nc1ccc(-c2ccccc2)cc1C(=O)C(=O)NCCCN(C)C [Compound 11a, N-(3-(Dimethylamino)propyl)-2-(4-(octylsulfonamido)-[1,1’-biphenyl]-3-yl)-2-oxoacetamide]",24 µM,–,–,–,28.2 µM,< 30 µM,–
"CCCCCCCCS(=O)(=O)Nc1ccc(CCCC)cc1C(=O)C(=O)NCCCN(C)C [Compound 13e, 3-(2-(5-Butyl-2-(octylsulfonamido)phenyl)-2-oxoacetamido)-N,N-dimethylpropan-1-aminium chloride]",–,32 µM,–,–,–,23.6 µM,–
"CCCCCCCCS(=O)(=O)Nc1ccc(-c2ccccc2)cc1C(=O)C(=O)NCCC[N+](C)(C)C [Compound 15a, N,N,N-Trimethyl-3-(2-(4-(octylsulfonamido)-[1,1’-biphenyl]-3-yl)-2-oxoacetamido)propan-1-aminium iodide]",–,16 µM,125 µM,32 µM,–,50.7 µM,–
"CCCCCCCCS(=O)(=O)Nc1ccc(-c2ccc(F)cc2)cc1C(=O)C(=O)NCCC[N+](C)(C)C [Compound 15b, 3-(2-(4’-Fluoro-4-(octylsulfonamido)-[1,1’-biphenyl]-3-yl)-2-oxoacetamido)-N,N,N-trimethylpropan-1-aminium iodide]",–,16 µM,63 µM,32 µM,–,190 µM,–
"CCCCCCCCS(=O)(=O)Nc1ccc(CCCC)cc1C(=O)C(=O)NCCC[N+](C)(C)C [Compound 15e, 3-(2-(5-Butyl-2-(octylsulfonamido)phenyl)-2-oxoacetamido)-N,N,N-trimethylpropan-1-aminium iodide]",–,16 µM,> 250 µM,> 250 µM,–,101 µM,–

# More lines, main results first:
MIC (S. aureus (SA38)),MIC (S. aureus (SA38); Staphylococcus aureus),MIC (P. aeruginosa (PA01)),MIC (E. coli (K12)),Compound,IC50 [1],"IC50 ([1]; Homo sapiens, MRC5, 72 h)",disruption of preformed S. aureus biofilms [2]
–,16 µM,–,–,"CCCCCCCCS(=O)(=O)Nc1ccc(-c2ccccc2)cc1C(=O)C(=O)NCCCN(C)C [Compound 13a, N,N-Dimethyl-3-(2-(4-(octylsulfonamido)-[1,1’-biphenyl]-3-yl)-2-oxoacetamido)propan-1-aminium chloride]",25 µM,–,–
–,16 µM,–,–,"CCCCCCCCS(=O)(=O)Nc1ccc(-c2ccc(Cl)cc2)cc1C(=O)C(=O)NCCCN(C)C [Compound 13c, 3-(2-(4’-Chloro-4-(octylsulfonamido)-[1,1’-biphenyl]-3-yl)-2-oxoacetamido)-N,N-dimethylpropan-1-aminium chloride]",–,25.5 µM,–
–,8 µM,–,–,"CCCCCCCCS(=O)(=O)Nc1ccc(-c2ccc3ccccc3c2)cc1C(=O)C(=O)NCCCN(C)C [Compound 13d, N,N-Dimethyl-3-(2-(5-(naphthalen-2-yl)-2-(octylsulfonamido)phenyl)-2-oxoacetamido)propan-1-aminium chloride]",19.7 µM,–,–
–,8 µM,250 µM,63 µM,"CCCCCCCCS(=O)(=O)Nc1ccc(-c2ccc(Cl)cc2)cc1C(=O)C(=O)NCCCNC(=N)N.Cl [Compound 22c, 2-(4’-Chloro-4-(octylsulfonamido)-[1,1’-biphenyl]-3-yl)-N-(3-guanidinopropyl)-2-oxoacetamide hydrochloride]",–,95 µM,failed to disrupt any

# From publication PMC7555970, “Design, Synthesis and Biological Evaluation of Biphenylglyoxamide-Based Small Molecular Antimicrobial Peptide Mimics as Antibacterial Agents” (International Journal of Molecular Sciences, 2020)
